Reference: patent US11174250B2, “Substituted carboxamides as inhibitors of WDR5 protein-protein binding” (PROPELLON THERAPEUTICS INC., priority 2016, dated 2021)
Where two headings read alike, the source gives them in different places.

Legend:
WDR5 protein = WDR5 protein (Homo sapiens (Human), UniProt P61964); test: Surface Plasmon Resonance (SPR) assay; format: binding; details: SPR; for residence time: τ=1/koff, read-out: Residence Time (t, min)
MLL1-WRAD2 complex = MLL1-WRAD2 complex (Homo sapiens (Human), UniProt P61964); test: MLL1-WRAD2 enzyme assay (in vitro methyl transferase assay); format: biochemical
Procedure: Reaction was initiated with 1 μM 3H-SAM and incubated for 1 hour at 30° C. Reaction mixture was transferred to P81 filter-paper and washed with PBS before detection.

[1] = Table 1, read-out: WDR5 binding affinity (KD)
[2] = Table 2, read-out: WDR5 binding affinity SPR (KD)
[3] = MLL1-WRAD2 assay, read-out: In vitro MLL1 activity (IC50)

SMILES | Kd (WDR5 protein; [1]) [µM] | Kd (WDR5 protein; [2]) [µM] | residence time (WDR5 protein) [min] | IC50 (MLL1-WRAD2 complex; [3]) [µM] | IC50 (MLL1-WRAD2 complex; Table 4, effect of Fluoro-substitution, read-out: IC50 (MLL1)) [µM]
CN1CCN(c2ccc(-c3cc(CN4CCOCC4)ccc3F)cc2NC(=O)c2cc(O)cc(F)c2F)CC1 [Example 48, 2,3-difluoro-N-(2′-fluoro-4-(4-methylpiperazin-1-yl)-5′-(morpholinomethyl)-[1,1′-biphenyl]-3-yl)-5-hydroxybenzamide] | 0.093 | 0.093 | 0.61 | 21.3 | –
CN1CCN(c2ccc(-c3cc(CN4CCOCC4)ccc3F)cc2NC(=O)c2c[nH]c(=O)cc2C(F)(F)F)CC1 [drawing 289] | – | – | – | – | 0.939
CN1CCN(c2ccc(-c3ccc(OC4CCOCC4)nc3F)cc2NC(=O)c2c[nH]c(=O)cc2C(F)(F)F)CC1 [Example 8, N-(5-(2-fluoro-6-((tetrahydro-2H-pyran-4-yl)oxy)pyridin-3-yl)-2-(4-methylpiperazin-1-yl)phenyl)-6-oxo-4-(trifluoromethyl)-1,6-dihydropyridine-3-carboxamide] | 0.005 | 0.005 | 5.85 | 1.48 | –
C[C@@H]1CN(c2ccc(-c3cc(C(=O)NC4CC4)ccc3F)cc2NC(=O)c2c[nH]c(=O)cc2C(F)(F)F)C[C@H](C)N1C [Example 93, N-(5′-(cyclopropylcarbamoyl)-2′-fluoro-4-((3S,5R)-3,4,5-trimethylpiperazin-1-yl)-[1,1′-biphenyl]-3-yl)-6-oxo-4-(trifluoromethyl)-1,6-dihydropyridine-3-carboxamide] | 0.0031 | 0.003 | 9.6 | 0.197 | –
CN1CCN(c2ccc(-c3cc(CNC(C)(C)C)ccc3F)cc2NC(=O)c2c[nH]c(=O)cc2C(F)(F)F)CC1 [Example 35, N-(5′-((tert-butylamino)methyl)-2′-fluoro-4-(4-methylpiperazin-1-yl)-[1,1′-biphenyl]-3-yl)-6-oxo-4-(trifluoromethyl)-1,6-dihydropyridine-3-carboxamide] | 0.009 | 0.009 | 4.59 | 2.39 | –
CN1CCN(c2ccc(-c3cc(CN4CCOCC4)ccc3F)cc2NC(=O)c2c[nH]c(=O)cc2C(F)(F)F)CC1CO (stereo not drawn) [Example 65, N-(2′-fluoro-4-(3-(hydroxymethyl)-4-methylpiperazin-1-yl)-5′-(morpholinomethyl)-[1,1′-biphenyl]-3-yl)-6-oxo-4-(trifluoromethyl)-1,6-dihydropyridine-3-carboxamide] | 0.0094 | 0.0094 | 9.93 | 7.3 | –
CN(C)C1CCN(c2ccc(-c3cc(CN4CCOCC4)ccc3F)cc2NC(=O)c2c[nH]c(=O)cc2C(F)(F)F)C1 (stereo not drawn) [Example 87, N-(4-(3-(dimethylamino)pyrrolidin-1-yl)-2′-fluoro-5′-(morpholinomethyl)-[1,1′-biphenyl]-3-yl)-6-oxo-4-(trifluoromethyl)-1,6-dihydropyridine-3-carboxamide] | – | – | – | 3.89 | –
Cc1cc(C(=O)Nc2cc(-c3cc(CN4CCOCC4)ccc3F)ccc2N2CCN(C)CC2)cc(C)c1F [Example 11, 4-fluoro-N-(2′-fluoro-4-(4-methylpiperazin-1-yl)-5′-(morpholinomethyl)-[1,1′-biphenyl]-3-yl)-3,5-dimethylbenzamide] | 0.006 | 0.006 | 1.04 | 4.43 | –
CN1CCN(c2ccc(-c3ccc(CNC4CCCC4)cc3F)cc2NC(=O)c2c[nH]c(=O)cc2C(F)(F)F)CC1 [Example 33, N-(4′-((cyclopentylamino)methyl)-2′-fluoro-4-(4-methylpiperazin-1-yl)-[1,1′-biphenyl]-3-yl)-6-oxo-4-(trifluoromethyl)-1,6-dihydropyridine-3-carboxamide] | 0.023 | 0.023 | 1.37 | 8.45 | –
C[C@@H]1CN(c2ccc(-c3cc(CN(C)C4COC4)c(F)cc3F)cc2NC(=O)c2c[nH]c(=O)cc2C(F)(F)F)C[C@H](C)N1C [Example 113, N-(2′,4′-difluoro-5′-((methyl(oxetan-3-yl)amino)methyl)-4-((3S,5R)-3,4,5-trimethylpiperazin-1-yl)-[1,1′-biphenyl]-3-yl)-6-oxo-4-(trifluoromethyl)-1,6-dihydropyridine-3-carboxamide] | 0.0082 | 0.008 | 5.5 | 2.1 | –
CC(C)COc1ccc(F)c(-c2ccc(N3CCN(C)CC3)c(NC(=O)c3c[nH]c(=O)cc3C(F)(F)F)c2)c1 [Example 6, N-(2′-fluoro-5′-isobutoxy-4-(4-methylpiperazin-1-yl)-[1,1′-biphenyl]-3-yl)-6-oxo-4-(trifluoromethyl)-1,6-dihydropyridine-3-carboxamide] | 0.076 | 0.076 | 0.19 | 2.51 | –
C[C@H]1CN(C)CCN1c1ccc(-c2cc(CN3CCOCC3)ccc2F)cc1NC(=O)c1c[nH]c(=O)cc1C(F)(F)F [Example 104, (S)—N-(4-(2,4-dimethylpiperazin-1-yl)-2′-fluoro-5′-(morpholinomethyl)-[1,1′-biphenyl]-3-yl)-6-oxo-4-(trifluoromethyl)-1,6-dihydropyridine-3-carboxamide] | 4 | 4 | – | – | –
C[C@@H]1CN(c2ccc(-c3ccc(F)c(CNC4CCCCC4)c3F)cc2NC(=O)c2c[nH]c(=O)cc2C(F)(F)F)C[C@H](C)N1C [Example 83, N-(3′-((cyclohexylamino)methyl)-2′,4′-difluoro-4-((3S,5R)-3,4,5-trimethylpiperazin-1-yl)-[1,1′-biphenyl]-3-yl)-6-oxo-4-(trifluoromethyl)-1,6-dihydropyridine-3-carboxamide] | 0.01 | 0.0103 | 3.24 | – | –
CN1CCN(c2ccc(-c3cc(CN4CCOCC4)ccc3F)cc2NC(=O)c2c[nH]c(=O)cc2C(F)(F)F)CC1COC(=O)C(C)(C)C (stereo not drawn) [Example 64, (4-(2′-fluoro-5′-(morpholinomethyl)-3-(6-oxo-4-(trifluoromethyl)-1,6-dihydropyridine-3-carboxamido)-[1,1′-biphenyl]-4-yl)-1-methylpiperazin-2-yl)methyl pivalate] | > 0.2 | 0.102 | – | – | –
CNc1cc(C(F)(F)F)c(C(=O)Nc2cc(-c3cc(CN4CCOCC4)ccc3F)ccc2N2CCN(C)CC2)cn1 [Example 108, N-(2′-fluoro-4-(4-methylpiperazin-1-yl)-5′-(morpholinomethyl)-[1,1′-biphenyl]-3-yl)-6-(methylamino)-4-(trifluoromethyl)nicotinamide] | > 0.2 | > 0.2 | – | – | –
COc1cc(C(F)(F)F)c(C(=O)Nc2cc(-c3cc(CN(C)[C@H]4CCOC4)ccc3F)ccc2N2CCN(C)CC2)cn1 [Example 58, (S)—N-(2′-fluoro-5′-((methyl(tetrahydrofuran-3-yl)amino)methyl)-4-(4-methylpiperazin-1-yl)-[1,1′-biphenyl]-3-yl)-6-methoxy-4-(trifluoromethyl)nicotinamide] | > 0.2 | > 0.2 | – | – | –
CN1CCN(c2ccc(-c3cc(CN4CCOCC4)ccc3Cl)cc2NC(=O)c2c[nH]c(=O)cc2C(F)(F)F)CC1 [Example 86, N-(2′-chloro-4-(4-methylpiperazin-1-yl)-5′-(morpholinomethyl)-[1,1′-biphenyl]-3-yl)-6-oxo-4-(trifluoromethyl)-1,6-dihydropyridine-3-carboxamide] | 0.035 | 0.0345 | – | – | –
C[C@@H]1CN(c2ccc(-c3c(F)cc(CNC4CCCCC4)cc3F)cc2NC(=O)c2c[nH]c(=O)cc2C(F)(F)F)C[C@H](C)N1C [Example 115, N-(4′-((cyclohexylamino)methyl)-2′,6′-difluoro-4-((3S,5R)-3,4,5-trimethylpiperazin-1-yl)-[1,1′-biphenyl]-3-yl)-6-oxo-4-(trifluoromethyl)-1,6-dihydropyridine-3-carboxamide] | 0.055 | 0.055 | 1.5 | – | –
C[C@@H]1CN(c2ccc(-c3cc(C(=O)NC(C)(C)CC(C)(C)C)c(F)cc3F)cc2NC(=O)c2c[nH]c(=O)cc2C(F)(F)F)C[C@H](C)N1C [Example 120, N-(2′,4′-difluoro-5′-((2,4,4-trimethylpentan-2-yl)carbamoyl)-4-((3S,5R)-3,4,5-trimethylpiperazin-1-yl)-[1,1′-biphenyl]-3-yl)-6-oxo-4-(trifluoromethyl)-1,6-dihydropyridine-3-carboxamide] | 0.006 | 0.006 | 12.5 | – | –
O=C(Nc1cc(-c2cc(CN3CCOCC3)ccc2F)ccc1N1CCN(CC(F)(F)F)CC1)c1c[nH]c(=O)cc1C(F)(F)F [Example 97, N-(2′-fluoro-5′-(morpholinomethyl)-4-(4-(2,2,2-trifluoroethyl)piperazin-1-yl)-[,1′-biphenyl]-3-yl)-6-oxo-4-(trifluoromethyl)-1,6-dihydropyridine-3-carboxamide] | > 0.2 | > 0.2 | – | – | –
CN1CC2CN(c3ccc(-c4cc(CN5CCOCC5)ccc4F)cc3NC(=O)c3c[nH]c(=O)cc3C(F)(F)F)CC2C1 (stereo not drawn) [Example 100, N-(2′-fluoro-4-(5-methylhexahydropyrrolo[3,4-c]pyrrol-2(1H)-yl)-5′-(morpholinomethyl)-[1,1′-biphenyl]-3-yl)-6-oxo-4-(trifluoromethyl)-1,6-dihydropyridine-3-carboxamide] | 5.93 | 5.93 | – | – | –
Cc1cc(C(=O)Nc2cc(-c3cc(CN4CCOCC4)ccc3F)ccc2N2CC3CN(C)CC3C2)cc(C)c1F (stereo not drawn) [Example 94, 4-fluoro-N-(2′-fluoro-4-(5-methylhexahydropyrrolo[3,4-c]pyrrol-2(1H)-yl)-5′-(morpholinomethyl)-[1,1′-biphenyl]-3-yl)-3,5-dimethylbenzamide] | > 0.2 | > 0.2 | – | – | –
C[C@@H]1CN(c2ccc(-c3cc(C(N)=O)ccc3F)cc2NC(=O)c2c[nH]c(=O)cc2C(F)(F)F)C[C@H](C)N1C [Example 119, N-(5′-carbamoyl-2′-fluoro-4-((3S,5R)-3,4,5-trimethylpiperazin-1-yl)-[1,1′-biphenyl]-3-yl)-6-oxo-4-(trifluoromethyl)-1,6-dihydropyridine-3-carboxamide] | 0.0037 | 0.004 | 2.8 | – | –
